Data as given in patent publication US5776935A, “Pyrido-phtalazin diones and their use against neurological disorders associated with excitotoxicity and malfunctioning of glutamatergic neurotransmission” (Merz & Co. GmbH & Co., priority 1996, dated 1998).

Key:
[1] = molecular target: T1, glycineB site of the NMDA receptor (rat cortical membranes) (Rattus norvegicus, UniProt P35439); test: [3H]5,7-DCKA binding assay; conditions: 10 nM [3H]5,7-DCKA
T1 construct: The cortex was dissected and homogenised in 20 volumes of ice-cold 0.32M sucrose; from tissue; host or cells: brain cortex membranes of male Sprague-Dawley rats
Experimental: (§1) Tissue preparation was performed according to Foster and Wong (1987). Male Sprague-Dawley rats (200-250g) were decapitated and their brains were removed rapidly. The cortex was dissected and homogenised in 20 volumes of ice-cold 0.32M sucrose using a glass-Teflon homogenizer. The homogenate was centrifuged at 1000×g for 10 min. The pellet was discarded and the supernatant centrifuged at 20,000×g for 20 min. The resulting pellet was resuspended in 20 volumes of distilled water and centrifuged for 20 min at 8000×g. Then the supernatant and the buffy coat were centrifuged three times (48,000× g for 20 min) in the presence of 5 mM Tris-HCl, pH 7.4. All centrifugation steps were carried out at 4° C. After resuspension in 5 volumes of 5 mM Tris-HCl, pH 7.4 the membrane suspension was frozen rapidly at -80° C. until the day of assay. On the day of assay the membranes were thawed and washed four times by resuspension in 5 mM Tris-HCl, pH 7.4 and centrifugation at 48,000× g for 20 min. The final pellet was suspended in assay buffer.
(§2) The amount of protein in the final membrane preparation was determined according to the method of Lowry (1951) with some modifications (Hartfree, 1972). 50 μl of Protein samples (in triplicates) were diluted to 1 ml with distilled water and treated with 0.9 ml of a solution containing 2 g potassium sodium tartrate and 10 g Na2 CO3 in 500 ml 1N NaOH and 500ml water. Blank and standard (with bovine serum albumin) were set up in the same way. The tubes were placed in a water bath at 50° C. for 10 min. and cooled at room temperature. 100 μl of a solution containing 2 g potassium sodium tartrate and 1 g CuSO4 x 5 H2 O in 90 ml water and 10 ml 1N NaOH were added. The samples were left at room temperature for at least 10 min., then 3 ml of Folin-Ciocalteu reagent (1 ml of reagent diluted with 15 ml water) was added rapidly during mixing. The tubes were again heated at 50° C. for 10 min. and cooled to room temperature. Absorbencies were then read in 1 cm cuvets at 650 nm. The final protein concentration used for our studies was between 100 and 250 μg/ml.
(§3) Incubation in both binding assays was terminated using a Millipore filter system. The samples, all in triplicate, were rinsed three times with 2.5 ml ice cold assay buffer over glass fibre filters obtained from Schleicher & Schuell under a constant vacuum. Following separation and rinse the filters were placed into scintillation liquid (5 ml; Ultima Gold) and radioactivity retained on the filters was determined by using conventional liquid scintillation counter (Hewlett Packard, Liquid Scintillation Analyser). `Total binding` was the absolute amount of radioligand bound in the absence of any additives whereas `non-specific` binding was determined in the presence of a high concentration of competitor.
[^3 H]5,7-DCKA binding assay
Experiments were performed according to the methods modified from previous groups (Canton et al., 1991; Yoneda et al., 1993). Membranes were suspended and incubated in 10 mM Tris-HCl, pH 7.4. Incubation time was 45 min at 4° C. Non-specific binding of [^3 H]5,7-DCKA was defined by the addition of unlabeled glycine at 0.1 mM. The stop-solution contained 10 mM Tris-HCl and 10 mM magnesium sulphate, pH 7.4. Filtration was performed as rapidly as possible. Displacement experiments were performed with a fixed [^3 H]5,7-DCKA concentration of 10 nM. Test compounds were diluted in water or DMSO and added in at least 5 different concentrations.

[2] = molecular target: T2, strychnine-insensitive glycine site (glycineB) of the NMDA receptor (rat cortical membranes) (Rattus norvegicus, UniProt P35439); test: [3H]glycine binding assay; conditions: 20 nM [3H]glycine, 100 μM strychnine
T2 construct: The cortex was dissected and homogenised in 20 volumes of ice-cold 0.32M sucrose; from tissue; host or cells: brain cortex membranes of male Sprague-Dawley rats
Experimental: as §1, §2, §3
[^3 H]glycine binding assay
[^3 H]glycine binding assays were performed according to the method described by Kessler and co-workers (1989). Rat cortical membranes were prepared as previously described and the final pellet was suspended in 50 mM Tris-acetate, pH 7.4. At least 5 different concentrations of test compounds were incubated with 2OnM [^3 H]glycine for 30 min at 4° C. in the presence of 100 μM strychnine. All compounds were dissolved in water or DMSO, respectively. Non-specific binding was determined by including 100 μM glycine in the incubation mixture. The incubation was terminated by diluting the samples with 2 ml of stop solution (50 mM Tris-HCl including 10 mM magnesium sulphate, pH 7.4, cooled to <2° C.) followed by a further rinse with 2.5 ml buffer. Filtration was performed as rapidly as possible.

[3] = molecular target: T3, NMDA receptor (Mus musculus, UniProt P35438); test: Pentylenetetrazol (PTZ)-induced convulsions; assay type: in vivo; conditions: ip, 0.25 h, i.p., PTZ 90 mg/kg i.p., read-out: PTZ ID50
T3 construct: from tissue; host or cells: living mice (albino Swiss males for NMDA and PTZ tests, NMR females for MES)
Experimental: To assess NMDA receptor antagonistic properties of the tested agents by assessing anticonvulsive effects. Additionally the role of organic acid transporters in the elimination from the brain of tested agents was assessed by using an inhibitor, Probenicid, on the duration of anticonvulsive activity.
Male albino Swiss mice (19-21 g) housed 10-15 per cage were used for the NMDA lethality test (Leander et al., 1988). For pentylenetetrazol (PTZ)-induced convulsions male albino Swiss mice (25-34 g.) housed 40 per cage (58×38×20 cm) were used while in the maximal electroshock (MES) and motor impairment tests NMR female mice (18-28 g) housed 5 per cage were employed. All animals were kept with water and food ad libittum under a 12-h light-dark cycle (light on at 6 a.m.), and at a controlled temperature (20°±0.5° C.). All experiments were performed between 10 a.m. and 5 p.m. Tested agents were injected 15 min. i.p before the induction of convulsions if not stated otherwise (see below). Mrz 2/502 was dissolved in saline added with NaOH. Most other agents were dissolved in the following solution: 0.606 g Tris; 5.0 g. glucose; 0.5 g. Tween 80; and 95 ml water. The choline and tetramethylammonium salts were dissolved in distilled water.
Pentylenetetrazol was injected at a dose of 90 mg/kg (i.p). The presence of general tonic convulsions was then scored for 30 min as this parameter is more sensitive to NMDA receptor antagonists than clonic convulsions. The pharmacological end-point was taken as the presence of tonus in the hind limbs with stretching.

How did the IC50 [1] turn out when O=c1[nH][nH]c(=O)c2nc3ccc(Cl)cc3cc12 [Mrz 2/501] was run?
Its IC50 is 120 nM.

And the IC50 [2]?
Its IC50 is 80 nM.

What about the ED50 [3] of the same molecule?
The ED50 was greater than 40 mg/kg.

For O=c1[nH]nc(O)c2c1cc1cc(Br)ccc1[n+]2[O-] [Mrz 2/514, 8-bromo-4-hydroxy-1-oxo-1,2-dihydropyridazino[4,5-b]-quinoline 5-oxide], which IC50 [1] is on record?
The IC50 was 10 nM.

And the IC50 [2]?
Its IC50 is 4 nM.

And the ED50 [3]?
The ED50 was 12.8 mg/kg.

Which IC50 [1] does the source give for O=c1[nH]nc(O)c2c1cc1cc(F)ccc1[n+]2[O-] [Mrz 2/516, 8-fluoro-4-hydroxy-1-oxo-1,2-dihydropyridazino[4,5-b]-quinoline 5-oxide] here?
Its IC50 is 300 nM.

What about the IC50 [2] of the same molecule?
The IC50 was 17 nM.

And the ED50 [3]?
Its ED50 is 7.9 mg/kg.

Which IC50 [1] does the source give for O=c1[nH][nH]c(=O)c2nc3ccc(F)cc3cc12 [Mrz 2/519] here?
Its IC50 is 1100 nM.

What about the IC50 [2] of the same molecule?
The IC50 was 15 nM.

And the ED50 [3]?
The ED50 was greater than 100 mg/kg.

What does the source list for O=c1[nH]nc(O)c2c1cc1cc(Cl)ccc1[n+]2[O-] [Mrz 2/502, 8-chloro-4-hydroxy-1-oxo-1,2-dihydropyridazino[4,5-b]-quinoline 5-oxide]?
IC50 [1]: 20 nM; IC50 [2]: 13 nM; ED50 [3]: 8.3 mg/kg

What does the source list for O=c1[nH][nH]c(=O)c2nc3ccc(Br)cc3cc12 [Mrz 2/503]?
IC50 [1]: 250 nM; IC50 [2]: 13 nM; ED50 [3]: > 100 mg/kg

Which IC50 [1] does the source give for O=c1[nH][nH]c(=O)c2nc3cc(Cl)c(Cl)cc3cc12 [Mrz 2/515] here?
The IC50 was 530 nM.

What about the ED50 [3] of the same molecule?
The ED50 was greater than 100 mg/kg.
